Experimental data: patent publication US20100190849A1, “Novel Clerodanes and Methods for Repelling Arthropods” (priority 2006, published 2010)
Marks after values point to notes of the source that are not given here.

What was measured:
Experiment in all cases: Multiple-choice digging bioassay, fire ant workers
Type in all cases: in vivo
[1] = test system: red imported fire ants, Solenopsis invicta Buren
Protocol: (§1) The repellency of the two terpenoids, callicarpenal and intermedeol, against workers of red imported fire ants, Solenopsis invicta Buren, black imported fire ants, Solenopsis rickeri Forel, and a hybrid of these two species was evaluated using multiple-choice digging bioassays (Tables 9 & 10). […] Callicarpenal and intermedeol were compared with octanoic acid, a known fire ant repellant, at the 25.00 ppm level using two-choice digging bioassays (FIGS. 3 and 4).
(§2) Ants: Two Solenopsis invicta colonies were collected in Sharkey County, Mississippi, and two Solenopsis richteri colonies were collected in Granada County, Mississippi. Two colonies of the hybrid (S. invicta×S. richteri) colony were collected in Sunflower County, Mississippi. Fire ant mounds were shoveled and placed in 19-L plastic buckets. The inside wall of the bucket was then coated with baby powder (Cumberland Swan Holdings, Inc., Smyrna, Tenn.) to prevent ant escape. Following the water-drip method developed by Bank et al. (Banks, W. A., et al., Techniques for collecting, rearing, and handling imported fire ants, USDA SEA AATS-S-21 (1981)), ants were separated and then placed in a 44.5×60.0×13.0 cm plastic tray with inside walls coated with Fluon® (Ag Fluoropolymers, Chadds Ford, Pa.). Distilled water and 15% (w/v) sucrose water solution in separated test tubes which were plugged with cotton balls were placed in the trays. Heliocoverpa zea (Boddie) and tobacco budworm, Heliothis virescens (Fabricius) pupae were used as food sources. Inside each tray were one to three 14.0×2.0 cm Petri dishes with 1.0 cm of hardener dental plaster (Castone®; Dentsply International Inc. York, Pa.) on the bottom. Also, in the center of the Petri dish was a 5.0-cm diameter brood chamber. Two 8-mm access holes were made on the wall of the petri dish above the dental plaster. The Petri dish lid was painted black (1302 Gloss Black Spray Enamel, Louisville, Ky.)to block the light. All colonies were maintained at 22-25° C.
(§3) Fire ant workers dug and removed sand from the tube through the entry hole. The differences in the amount of removed sand among treated and control tubes were used to evaluate chemical repellency. Four 2 ml centrifuge tubes were mounted under a 14.0×2.3 cm Petri dish using glue (Arrow Fastener Co., inc., Saddle Brook, N.J.). Tubes were 5.0 cm away from the center of the Petri dish and at equal distance from each other. A 3-mm diameter access hole was drilled for each centrifuge tube, which went through the bottom of the Petri dish and the cap of the tube. The inner side of the Petri dish was coated with Fluon. Three concentrations of a test compound and one control were set up in each apparatus. Six concentrations, including […], 6.25, 12.50, and 25.00 ppm, were tested in two separated bioassays for each species and hybrid; however three more concentrations of callicarpenal, 50.00, 100.00, and […], were tested for S. invicta. Sand (Premium Play Sand, Plassein International, Longview, Tex.) was first sieved through a ™35 U.S.A. standard testing sieve (Thomas Scientific, Swedesboro, N.J.) and then washed with distilled water and dried at 350° C. for 12 h. A 3 ml dichloromethane solution of callicarpenal or intermedeol was mixed with 30 g sand in an aluminum pan. The sand was stirred every 2 min to facilitate the evaporation of the solvent under a fume hood. After dichloromethane evaporated (5 minutes), 1.92 ml distilled water was added and mixed with sand. Sand in the control tube was treated only with dichloromethane. In each tube a mean (±SD) 2.78 g (±0.06 g) wet sand was added. There was no open space inside the tube. Locations of each concentration were randomized. Fifty fire ant workers were introduced into the center of the Petri Dish. The experiment was conducted at 22±0.8° C. (mean±SD) temperature and 45.4%±11.87% relative humidity. After 24 h, sand in each vial was collected, dried at 150° C. for at least 4 hour, and weighed. […]

[2] = test system: black imported fire ants, Solenopsis richteri Forel
Protocol: as §1, §2, §3

[3] = test system: hybrid (S. invicta×S. richteri)
Protocol: as §1, §2, §3

CC1=CCC[C@@H]2[C@@](C)(CC=O)[C@H](C)CC[C@@]12C [callicarpenal, 13,14,15,16-tetranorclerod-3-en-12-al]
Sand removed (SE), mean weight of sand removed by ants 24 h after release ([1]; S. invicta colony 1, Exp. 1, 0.75 ppm): 0.19 (0.07) g
Sand removed (SE), mean weight of sand removed by ants 24 h after release ([1]; S. invicta colony 1, Exp. 1, 1.50 ppm): 0.24 (0.15) g
Sand removed (SE), mean weight of sand removed by ants 24 h after release ([1]; S. invicta colony 1, Exp. 1, 3.15 ppm): 0.40 (0.20) g
Sand removed (SE), mean weight of sand removed by ants 24 h after release ([1]; S. invicta colony 1, Exp. 2, 6.25 ppm): 0.21 (0.12) g
Sand removed (SE), mean weight of sand removed by ants 24 h after release ([1]; S. invicta colony 1, Exp. 2, 12.50 ppm): 0.48 (0.19) g
Sand removed (SE), mean weight of sand removed by ants 24 h after release ([1]; S. invicta colony 1, Exp. 2, 25.00 ppm): 0.08 (0.05) g
Sand removed (SE), mean weight of sand removed by ants 24 h after release ([1]; S. invicta colony 1, Exp. 3, 50.00 ppm): 0.04 (0.004)* g
Sand removed (SE), mean weight of sand removed by ants 24 h after release ([1]; S. invicta colony 1, Exp. 3, 100.00 ppm): 0.02 (0.008)* g
Sand removed (SE), mean weight of sand removed by ants 24 h after release ([1]; S. invicta colony 1, Exp. 3, 150.00 ppm): 0.03 (0.007)* g
Sand removed (SE), mean weight of sand removed by ants 24 h after release ([1]; S. invicta colony 2, Exp. 4, 0.75 ppm): 0.32 (0.16) g
Sand removed (SE), mean weight of sand removed by ants 24 h after release ([1]; S. invicta colony 2, Exp. 4, 1.50 ppm): 0.32 (0.15) g
Sand removed (SE), mean weight of sand removed by ants 24 h after release ([1]; S. invicta colony 2, Exp. 4, 3.15 ppm): 0.36 (0.11) g
Sand removed (SE), mean weight of sand removed by ants 24 h after release ([1]; S. invicta colony 2, Exp. 5, 6.25 ppm): 0.24 (0.21) g
Sand removed (SE), mean weight of sand removed by ants 24 h after release ([1]; S. invicta colony 2, Exp. 5, 12.50 ppm): 0.45 (0.18) g
Sand removed (SE), mean weight of sand removed by ants 24 h after release ([1]; S. invicta colony 2, Exp. 5, 25.00 ppm): 0.02 (0.01) g
Sand removed (SE), mean weight of sand removed by ants 24 h after release ([1]; S. invicta colony 2, Exp. 6, 50.00 ppm): 0.02 (0.007)* g
Sand removed (SE), mean weight of sand removed by ants 24 h after release ([1]; S. invicta colony 2, Exp. 6, 100.00 ppm): 0.08 (0.06)* g
Sand removed (SE), mean weight of sand removed by ants 24 h after release ([1]; S. invicta colony 2, Exp. 6, 150.00 ppm): 0.07 (0.03)* g
concentration at which significant repellency was shown ([1]; S. invicta, two colonies, in sand, 24 h): ≥ 50.00 ppm
Sand removed (SE), mean weight of sand removed by ants 24 h after release ([2]; S. richteri colony 1, Exp. 7, 0.75 ppm): 0.40 (0.16) g
Sand removed (SE), mean weight of sand removed by ants 24 h after release ([2]; S. richteri colony 1, Exp. 7, 1.50 ppm): 0.28 (0.12) g
Sand removed (SE), mean weight of sand removed by ants 24 h after release ([2]; S. richteri colony 1, Exp. 7, 3.15 ppm): 0.21 (0.13) g
Sand removed (SE), mean weight of sand removed by ants 24 h after release ([2]; S. richteri colony 1, Exp. 8, 6.25 ppm): 0.10 (0.04)* g
Sand removed (SE), mean weight of sand removed by ants 24 h after release ([2]; S. richteri colony 1, Exp. 8, 12.50 ppm): 0.40 (0.17)* g
Sand removed (SE), mean weight of sand removed by ants 24 h after release ([2]; S. richteri colony 1, Exp. 8, 25.00 ppm): 0.08 (0.04)* g
Sand removed (SE), mean weight of sand removed by ants 24 h after release ([2]; S. richteri colony 2, Exp. 9, 0.75 ppm): 0.27 (0.16) g
Sand removed (SE), mean weight of sand removed by ants 24 h after release ([2]; S. richteri colony 2, Exp. 9, 1.50 ppm): 0.85 (0.22) g
Sand removed (SE), mean weight of sand removed by ants 24 h after release ([2]; S. richteri colony 2, Exp. 9, 3.15 ppm): 0.17 (0.11) g
Sand removed (SE), mean weight of sand removed by ants 24 h after release ([2]; S. richteri colony 2, Exp. 10, 6.25 ppm): 0.10 (0.04)* g
Sand removed (SE), mean weight of sand removed by ants 24 h after release ([2]; S. richteri colony 2, Exp. 10, 12.50 ppm): 0.10 (0.04)* g
Sand removed (SE), mean weight of sand removed by ants 24 h after release ([2]; S. richteri colony 2, Exp. 10, 25.00 ppm): 0.01 (0.002)* g
Sand removed (SE), mean weight of sand removed by ants 24 h after release ([3]; Hybrid colony 1, Exp. 11, 0.75 ppm): 0.66 (0.09) g
Sand removed (SE), mean weight of sand removed by ants 24 h after release ([3]; Hybrid colony 1, Exp. 11, 1.50 ppm): 0.59 (0.10) g
Sand removed (SE), mean weight of sand removed by ants 24 h after release ([3]; Hybrid colony 1, Exp. 11, 3.15 ppm): 0.30 (0.11) g
Sand removed (SE), mean weight of sand removed by ants 24 h after release ([3]; Hybrid colony 1, Exp. 12, 6.25 ppm): 0.53 (0.13)* g
Sand removed (SE), mean weight of sand removed by ants 24 h after release ([3]; Hybrid colony 1, Exp. 12, 12.50 ppm): 0.26 (0.05)* g
Sand removed (SE), mean weight of sand removed by ants 24 h after release ([3]; Hybrid colony 1, Exp. 12, 25.00 ppm): 0.39 (0.14)* g
Sand removed (SE), mean weight of sand removed by ants 24 h after release ([3]; Hybrid colony 2, Exp. 13, 0.75 ppm): 0.53 (0.14) g
Sand removed (SE), mean weight of sand removed by ants 24 h after release ([3]; Hybrid colony 2, Exp. 13, 1.50 ppm): 0.36 (0.09) g
Sand removed (SE), mean weight of sand removed by ants 24 h after release ([3]; Hybrid colony 2, Exp. 13, 3.15 ppm): 0.58 (0.12) g
Sand removed (SE), mean weight of sand removed by ants 24 h after release ([3]; Hybrid colony 2, Exp. 14, 6.25 ppm): 0.47 (0.09)* g
Sand removed (SE), mean weight of sand removed by ants 24 h after release ([3]; Hybrid colony 2, Exp. 14, 12.50 ppm): 0.30 (0.11)* g
Sand removed (SE), mean weight of sand removed by ants 24 h after release ([3]; Hybrid colony 2, Exp. 14, 25.00 ppm): 0.21 (0.11)* g
concentration at which significant repellency was shown ([3]; hybrid, two colonies, in sand, 24 h): ≥ 6.25 ppm
